From patent US5084464A, “Conjugated γ-hydroxybutenolide compounds and antiulcer agents containing the same as an effective ingredient” (Kuraray Company Ltd., priority 1989, dated 1992)

How the values were obtained:
[1] = test system: HCl-ethanol-induced ulcers generated at the mucosa of the stomach; assay: Antiulcer Activity (HCl-Ethanol Ulcer); assay type: in vivo; settings: oral, one hour before HCl-ethanol, rats
Method: Antiulcer Activity (HCl-Ethanol Ulcer)
1.5 ml of a 60% aqueous ethanol solution containing 150 mM hydrochloric acid was orally administered to rats. One hour thereafter the rats were sacrificed and the length (mm) of HCl-ethanol-induced ulcers generated at the mucosa of the stomach were measured. Sum of the length of ulcer per animal is defined as ulcer coefficient. Specimens each was orally administered one hour before the HCl-ethanol administration. Inhibition rate was calculated as the ratio of the difference of ulcer coefficients of the control group and specimen-administered group to the ulcer coefficient of the control group.

[2] = Acute Toxicity (oral administration); settings: mouse, in vivo
Method: Acute toxicity tests through oral administration were carried out using male ICR-strain mice (5 weeks old).

[3] = Rattus norvegicus, 1 h, read-out: Inhibition Rate

SMILES	inhibition in vivo at 2.5 mg/kg [1, 3]	inhibition in vivo at 5 mg/kg [1, 3]	further results
O=C1C=C(/C=C/c2ccco2)C(O)O1 (stereo not shown) [(7)]	96%		
COc1ccc2cc(/C=C/C3=CC(=O)OC3O)ccc2c1 (stereo not shown) [(6)]		61.3%	
O=C1C=C(/C=C/c2cccc(C(=O)c3ccccc3)c2)C(O)O1 (stereo not shown) [(3)]		69.7%	
CC(C)=C/C=C/C1=CC(=O)OC1O (stereo not shown) [Compound (1), 5-hydroxy-4-[4-methyl-1,3-pentadienyl]-2(5H)-furanone]		90.6%	LD50 [2]: ≥ 2000 mg/kg
CC(=O)c1ccc2c(c1)C(=O)C1(CC1)O2 [Spizofurone, reference compound]			Inhibition Rate ([1]; 100 mg/kg): 86.6%
CN(C)c1ccc(/C=C/C2=CC(=O)OC2O)cc1 (stereo not shown) [(2)]	37.5%		
O=C1C=C(/C=C/c2cccs2)C(O)O1 (stereo not shown) [(8)]	95.5%		
CC(=O)CCC=C(C)CCC=C(C)CCC=C(C)CCC=C(C)C [Teprenone, reference compound]			inhibition in vivo at 25 mg/kg ([1]; Rattus norvegicus, 1 h, 25 mg/kg, read-out: Inhibition Rate): 48.9%
O=C1C=C(/C=C/c2cccc3ccccc23)C(O)O1 (stereo not shown) [(5)]	94%		
O=C1C=C(/C=C/C=C/c2ccccc2)C(O)O1 (stereo not shown) [(9)]		98.6%	
O=C1C=C(/C=C/c2cccc(Cc3cccnc3)c2)C(O)O1 (stereo not shown) [(4)]		42%	
O=C1C=C(/C=C/C=C/C=C/c2ccccc2)C(O)O1 (stereo not shown) [(10)]		61.8%	
